One test relates to HeLa cells. In words: Histone H3 (Ser10) phosphorylation ELISA, abrogation of camptothecin-induced G2 arrest (CHK-1 cellular assay). In kind it is cell-based. Particulars: HeLa cells, camptothecin 8 hrs, then compound with nocodozole 16 hours, read-out: EC50. A digest of the protocol:
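HeLa cells, or MiaPaCa-2 where marked, received camptothecin for 8 h, then compound with nocodazole for 16 h. Ser10-phosphorylated histone H3 in lysates was measured by ELISA with a biotinylated antibody, streptavidin-HRP and TMB. EC50 came from four-parameter sigmoid fits.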

The next test deals with T1, CHK1 (kinase domain) (Homo sapiens, UniProt O14757).
T1 construct: a solution containing 1 nM of CHK1 (kinase domain)
T1 sequence (O14757 9-265 limits assumed): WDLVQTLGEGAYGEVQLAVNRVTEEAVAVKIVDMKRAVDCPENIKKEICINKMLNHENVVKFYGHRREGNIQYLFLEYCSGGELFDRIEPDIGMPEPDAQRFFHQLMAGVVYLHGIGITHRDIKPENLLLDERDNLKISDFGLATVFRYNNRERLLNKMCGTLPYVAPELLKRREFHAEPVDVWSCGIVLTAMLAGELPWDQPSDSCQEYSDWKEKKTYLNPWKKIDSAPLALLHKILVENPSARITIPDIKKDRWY
In words: CHK1 Ki determination, spectrophotometric coupled (pyruvate kinase/lactate dehydrogenase) assay. The format is biochemical. Particulars: CHK-1 kinase domain; for percent inhibition (where no Ki data is available): inhibitor concentration not given; for Ki: 150 uM ATP, 125 uM Syntide 2. A digest of the protocol:
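Ki values, or % inhibition where no Ki was obtained, come from a tight-binding fit that uses active enzyme concentration and the ATP Km. Rates were followed as NADH loss at 340 nm, with ADP production coupled via pyruvate kinase and lactate dehydrogenase. Reactions with ATP (150 uM) and Syntide 2 (125 uM) were started after the CHK1 kinase domain had stood with inhibitor for 15 min.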

Where two headings read alike, the source gives them in different places. Where only a bound is given, the exact number is not on record here.

For `C[C@H]1NCCC[C@@H]1Nc1cncc(-c2cnc3cnccn23)n1` [Example 171, 6-(imidazo[1,2-a]pyrazin-3-yl)-N-[(2R,3S)-2-methylpiperidin-3-yl]pyrazin-2-amine], the EC50 (commonly the concentration giving half of the maximal effect) with HeLa cells (Homo sapiens, HeLa) is at least 10000 nM. Moreover, the “percent inhibition (where no Ki data is available)” value on CHK1 (kinase domain) is on record as 21.7%^.

Regarding `C[C@H]1NCCC[C@@H]1Nc1cncc(-c2cnc3ccc(F)cn23)n1` [Example 172, 6-(6-fluoroimidazo[1,2-a]pyridin-3-yl)-N-[(2R,3S)-2-methylpiperidin-3-yl]pyrazin-2-amine], the concentration for a half-maximal effect (EC50) with HeLa cells (Homo sapiens, HeLa) is at least 10000 nM. Further, on CHK1 (kinase domain), the Ki – broadly, a measure of affinity in units of concentration, obtained from inhibition or displacement – came out at 178 nM.

Take `CC(C)c1cn2c(-c3cncc(N[C@H]4CCCN[C@@H]4C)n3)cnc2s1` [Example 173, N-[(2R,3S)-2-methylpiperidin-3-yl]-6-[2-(propan-2-yl)imidazo[2,1-b][1,3]thiazol-5-yl]pyrazin-2-amine]: the EC50 with HeLa cells (Homo sapiens, HeLa) is at least 10000 nM. Besides, at CHK1 (kinase domain), the affinity, expressed as Ki, was 23.7 nM.

For the compound `CCc1cn2c(-c3cncc(N[C@H]4CCCN[C@@H]4C)n3)cnc2s1` [Example 174, 6-(2-ethylimidazo[2,1-b][1,3]thiazol-5-yl)-N-[(2R,3S)-2-methylpiperidin-3-yl]pyrazin-2-amine], in the test on HeLa cells (Homo sapiens, HeLa), the concentration for a half-maximal effect (EC50) is at least 10000 nM. On CHK1 (kinase domain), this compound yielded a Ki of 16.9 nM.

In the case of `Cc1cn2c(-c3cncc(N[C@H]4CCCN[C@H]4C)n3)cnc2s1` [Example 175, 6-(2-methylimidazo[2,1-b][1,3]thiazol-5-yl)-N-[(2S,3S)-2-methylpiperidin-3-yl]pyrazin-2-amine], in the test with HeLa cells (Homo sapiens, HeLa), the EC50 amounted to 197 nM. On CHK1 (kinase domain), this compound showed a Ki of 13.7 nM.

Regarding `Cc1cn2c(-c3cncc(N[C@@H]4CCCN[C@H]4C)n3)cnc2s1` [Example 176, 6-(2-methylimidazo[2,1-b][1,3]thiazol-5-yl)-N-[(2S,3R)-2-methylpiperidin-3-yl]pyrazin-2-amine], in the test with HeLa cells, the half-maximal effective concentration (EC50) turned out to be 11.2 nM. Also, the Ki on CHK1 (kinase domain) was determined as 9.54 nM.

With `Cc1cn2c(-c3cncc(N[C@H]4CN[C@H](C)C4)n3)cnc2s1` [Example 178, 6-(2-methylimidazo[2,1-b][1,3]thiazol-5-yl)-N-[(3R,5R)-5-methylpyrrolidin-3-yl]pyrazin-2-amine], in the test on HeLa cells (Homo sapiens, HeLa), the EC50 is 31.2 nM. The compound further had a Ki on CHK1 (kinase domain) of 2.01 nM.

With `C[C@@H]1NCCC[C@@H]1Nc1cncc(-c2cnc3sccn23)n1` [Example 179, 6-(imidazo[2,1-b][1,3]thiazol-5-yl)-N-[(2S,3S)-2-methylpiperidin-3-yl]pyrazin-2-amine], the EC50 in the test with HeLa cells (Homo sapiens, HeLa) turned out to be 294 nM. The “percent inhibition (where no Ki data is available)” value at CHK1 (kinase domain) came out at 29.1%^.

Regarding `C[C@H]1NCCC[C@H]1Nc1cncc(-c2cnc3sccn23)n1` [Example 180, 6-(imidazo[2,1-b][1,3]thiazol-5-yl)-N-[(2R,3R)-2-methylpiperidin-3-yl]pyrazin-2-amine], the EC50 in the test with HeLa cells (Homo sapiens, HeLa) is at least 10000 nM. This compound had a Ki on CHK1 (kinase domain) of 1.5 nM.

Consider `Cc1cn2c(-c3cncc(N[C@H]4CNC[C@H]4CF)n3)cnc2s1` [Example 183, N-[(3R,4R)-4-(fluoromethyl)pyrrolidin-3-yl]-6-(2-methylimidazo[2,1-b][1,3]thiazol-5-yl)pyrazin-2-amine], for which the concentration giving a half-maximal response (EC50) in the test on HeLa cells (Homo sapiens, HeLa) is 53 nM. Moreover, the affinity at CHK1 (kinase domain), expressed as Ki, was 5.4 nM.

With `CC(C)c1cn2c(-c3cncc(N[C@H]4CNC[C@H]4CF)n3)cnc2s1` [Example 184, N-[(3R,4R)-4-(fluoromethyl)pyrrolidin-3-yl]-6-[2-(propan-2-yl)imidazo[2,1-b][1,3]thiazol-5-yl]pyrazin-2-amine], the EC50 in the test on HeLa cells (Homo sapiens, HeLa) worked out at 66.4 nM. Also, the “percent inhibition (where no Ki data is available)” value at CHK1 (kinase domain) is listed as 109%^.

As to `CCc1cn2c(-c3cncc(N[C@H]4CNC[C@H]4CF)n3)cnc2s1` [Example 185, 6-(2-ethylimidazo[2,1-b][1,3]thiazol-5-yl)-N-[(3R,4R)-4-(fluoromethyl)pyrrolidin-3-yl]pyrazin-2-amine], the EC50 in the test with HeLa cells (Homo sapiens, HeLa) came out at 66.4 nM. The Ki on CHK1 (kinase domain) came out at 5.4 nM.

On to `N#Cc1ccn2c(-c3cncc(N[C@@H]4CCNC4)n3)cnc2c1` [Example 186, 3-{6-[(3R)-pyrrolidin-3-ylamino]pyrazin-2-yl}imidazo[1,2-a]pyridine-7-carbonitrile], for which the EC50 in the test with HeLa cells (Homo sapiens, HeLa) was 664 nM. In addition, at CHK1 (kinase domain), the affinity, expressed as Ki, was 24 nM.

On to `CO[C@@H]1CNC[C@@H]1Nc1cncc(-c2cnc3ccccn23)n1` [Example 190, 6-(imidazo[1,2-a]pyridin-3-yl)-N-[(3S,4R)-4-methoxypyrrolidin-3-yl]pyrazin-2-amine], for which the EC50 in the test with HeLa cells (Homo sapiens, HeLa) is 1320 nM. The compound also showed an inhibitory constant (Ki) at CHK1 (kinase domain) of 156 nM.

For the compound `C[C@@H]1CNC[C@@H]1Nc1cncc(-c2cnc3cc(C(N)=O)ccn23)n1` [Example 191, 3-(6-{[(3R,4R)-4-methylpyrrolidin-3-yl]amino}pyrazin-2-yl)imidazo[1,2-a]pyridine-7-carboxamide], the EC50 with HeLa cells (Homo sapiens, HeLa) was determined as 5070 nM. This compound returned a Ki on CHK1 (kinase domain) of 4.7 nM.

On to `CCOC[C@@H]1C[C@@H](Nc2cncc(-c3cnc4ccccn34)n2)CN1` [Example 193, N-[(3R,5S)-5-(ethoxymethyl)pyrrolidin-3-yl]-6-(imidazo[1,2-a]pyridin-3-yl)pyrazin-2-amine], for which the EC50 with HeLa cells (Homo sapiens, HeLa) was found to be 102 nM. Further, the inhibition constant Ki at CHK1 (kinase domain) was determined as 26.5 nM.

As to `CC(C)[C@@H]1CNC[C@@H]1Nc1cncc(-c2cnc3ccccn23)n1` [Example 194, 6-(imidazo[1,2-a]pyridin-3-yl)-N-[(3R,4R)-4-(propan-2-yl)pyrrolidin-3-yl]pyrazin-2-amine], in the test with HeLa cells (Homo sapiens, HeLa), the 50% effective concentration (EC50) was determined as 7.76 nM. For the same compound, the Ki at CHK1 (kinase domain) worked out at 13.6 nM.

Take `FC(F)(F)CO[C@@H]1CNC[C@@H]1Nc1cncc(-c2cnc3ccccn23)n1` [Example 195, 6-(imidazo[1,2-a]pyridin-3-yl)-N-[(3S,4R)-4-(2,2,2-trifluoroethoxy)pyrrolidin-3-yl]pyrazin-2-amine]: in the test on HeLa cells (Homo sapiens, HeLa), the EC50 came out at 78.5 nM. For the same compound, the Ki at CHK1 (kinase domain) amounted to 73.4 nM.

On to `CC[C@@H]1CNC[C@@H]1Nc1cncc(-c2cnc3ccccn23)n1` [Example 196, N-[(3R,4R)-4-ethylpyrrolidin-3-yl]-6-(imidazo[1,2-a]pyridin-3-yl)pyrazin-2-amine], for which, in the test with HeLa cells (Homo sapiens, HeLa), the EC50 came out at 16.8 nM. The compound further yielded a Ki at CHK1 (kinase domain) of 32 nM.

As to `Fc1ccc2c(-c3cncc(N[C@@H]4CCCNC4)n3)cnn2c1` [Example 198, 6-(6-fluoropyrazolo[1,5-a]pyridin-3-yl)-N-[(3R)-piperidin-3-yl]pyrazin-2-amine], the EC50 in the test on HeLa cells (Homo sapiens, HeLa) was 23.4 nM. The Ki at CHK1 (kinase domain) was determined as 1.09 nM.

For `OC[C@@H]1CNC[C@@H]1Nc1cncc(-c2cnn3cc(Cl)ccc23)n1` [Example 201, [(3R,4R)-4-{[6-(6-chloropyrazolo[1,5-a]pyridin-3-yl)pyrazin-2-yl]amino}pyrrolidin-3-yl]methanol], the EC50 in the test with HeLa cells (Homo sapiens, HeLa) was found to be 48.9 nM. For the same compound, at CHK1 (kinase domain), the Ki stood at 4.88 nM.

Turning to `C[C@@H]1CNC[C@@H]1Nc1cncc(-c2cnn3cc(F)ccc23)n1` [Example 202, 6-(6-fluoropyrazolo[1,5-a]pyridin-3-yl)-N-[(3R,4R)-4-methylpyrrolidin-3-yl]pyrazin-2-amine], in the test on HeLa cells (Homo sapiens, HeLa), the EC50 came out at 19.4 nM. In addition, the Ki on CHK1 (kinase domain) turned out to be 18.4 nM.

Consider `C[C@@H]1CNC[C@@H]1Nc1cncc(-c2cnc3cc(-c4cnn(C)c4)ccn23)n1` [Example 209, 6-[7-(1-methyl-1H-pyrazol-4-yl)imidazo[1,2-a]pyridin-3-yl]-N-[(3R,4R)-4-methylpyrrolidin-3-yl]pyrazin-2-amine], for which, in the test on HeLa cells (Homo sapiens, HeLa), the EC50 was 123 nM. Further, the Ki at CHK1 (kinase domain) came to 1.3 nM.

Take `CC(C)OCCOc1ccn2c(-c3cncc(N[C@@H]4CCNC4)n3)cnc2c1` [Example 213, 6-{7-[2-(propan-2-yloxy)ethoxy]imidazo[1,2-a]pyridin-3-yl}-N-[(3R)-pyrrolidin-3-yl]pyrazin-2-amine]: in the test with HeLa cells (Homo sapiens, HeLa), the concentration giving a half-maximal response (EC50) was at least 10000 nM. For the same compound, the Ki at CHK1 (kinase domain) worked out at 3.58 nM.

For the compound `CC(C)Oc1ccc2c(c1)ncn2-c1cncc(N[C@@H]2CCCNC2)n1` [Example 215, N-[(3R)-piperidin-3-yl]-6-[5-(propan-2-yloxy)-1H-benzimidazol-1-yl]pyrazin-2-amine], the EC50 in the test on HeLa cells (Homo sapiens, HeLa) turned out to be 35.8 nM. Moreover, on CHK1 (kinase domain), the Ki came to 6.78 nM.

For `COc1ccc2ncn(-c3cncc(N[C@@H]4CCNC4)n3)c2c1` [Example 216, 6-(6-methoxy-1H-benzimidazol-1-yl)-N-[(3R)-pyrrolidin-3-yl]pyrazin-2-amine], in the test with HeLa cells (Homo sapiens, HeLa), the EC50 amounted to 35.8 nM. This compound also came in with a Ki at CHK1 (kinase domain) of 15.5 nM.

As for `COc1ccc2c(c1)ncn2-c1cncc(N[C@@H]2CCNC2)n1` [Example 218, 6-(5-methoxy-1H-benzimidazol-1-yl)-N-[(3R)-pyrrolidin-3-yl]pyrazin-2-amine], in the test on HeLa cells (Homo sapiens, HeLa), the EC50 is at least 10000 nM. Also, the Ki at CHK1 (kinase domain) turned out to be 5.12 nM.

Take `CCOc1ccc2ncn(-c3cncc(N[C@@H]4CCNC4)n3)c2c1` [Example 219, 6-(6-ethoxy-1H-benzimidazol-1-yl)-N-[(3R)-pyrrolidin-3-yl]pyrazin-2-amine]: in the test on HeLa cells (Homo sapiens, HeLa), the EC50 was 979 nM. Further, the “percent inhibition (where no Ki data is available)” value at CHK1 (kinase domain) is on record as 48.4%^.

Take `c1cc2c(cc1OCC1CC1)ncn2-c1cncc(N[C@@H]2CCNC2)n1` [Example 221, 6-[5-(cyclopropylmethoxy)-1H-benzimidazol-1-yl]-N-[(3R)-pyrrolidin-3-yl]pyrazin-2-amine]: in the test on HeLa cells (Homo sapiens, HeLa), the concentration giving a half-maximal response (EC50) amounted to 370 nM. On CHK1 (kinase domain), this compound had an inhibition constant (Ki) of 3.34 nM.

As to `CC(C)Oc1ccc2c(c1)ncn2-c1cncc(N[C@@H]2CCNC2)n1` [Example 222, 6-[5-(propan-2-yloxy)-1H-benzimidazol-1-yl]-N-[(3R)-pyrrolidin-3-yl]pyrazin-2-amine], in the test with HeLa cells (Homo sapiens, HeLa), the concentration for a half-maximal effect (EC50) was at least 10000 nM. On CHK1 (kinase domain), the “percent inhibition (where no Ki data is available)” value was 42.5%^.

Source of the values: patent publication US8518952B2, “6 substituted 2-heterocyclylamino pyrazine compounds as CHK-1 inhibitors” (Pfizer Inc., priority 2008, dated 2013).
